Laboratory results taken from patent US9708359B2, “Pyrrolopyrimidine nucleosides and analogs thereof” (Chimerix, Inc., priority 2015, dated 2017).
pEC50: −log10 of the molar value. Several values for one entry are separate records, joined by “and”; a condition that tells them apart may be missing. Equal values may be shown once.

Tests used:
RAW cells = test: Conversion of Compound 1 to Triphosphate in RAW Cells; conditions: for (Compound 1-TP)/(Compound 1) (ng): ratio by ng; for (Compound 1-TP)/(Compound 1) (pmol): ratio by pmol
mouse norovirus = test: Mouse Norovirus (MNV) assay in RAW cells; conditions: murine norovirus
[1] = RAW cells incubated with 0.5 μM Compound 1 for 48 hours
[2] = RAW cells incubated with 1 μM Compound 1 for 48 hours
[3] = RAW cells incubated with 5 μM Compound 1 for 48 hours
[4] = RAW cells incubated with 10 μM Compound 1 for 48 hours
[5] = Table 8, N/A = assayed but no EC50 value could be measured

Structure (SMILES) | pEC50 (mouse norovirus; [5]) | also measured
Cc1nc(N)c2c(C(N)=O)cn([C@@H]3O[C@H](COP(=O)(O)OP(=O)(O)OP(=O)(O)O)[C@@H](O)[C@H]3O)c2n1 [Compound 1-TP] |  | Concentration (ng/1 × 10^6 cells) (RAW cells; [1]): 3.74 ng/1 × 10^6 cells; Concentration (pmol/1 × 10^6 cells) (RAW cells; [1]): 6.37 pmol/1 × 10^6 cells; Concentration (ng/1 × 10^6 cells) (RAW cells; [2]): 5.13 ng/1 × 10^6 cells; Concentration (pmol/1 × 10^6 cells) (RAW cells; [2]): 8.74 pmol/1 × 10^6 cells; Concentration (ng/1 × 10^6 cells) (RAW cells; [3]): 26.77 ng/1 × 10^6 cells; Concentration (pmol/1 × 10^6 cells) (RAW cells; [3]): 45.61 pmol/1 × 10^6 cells; Concentration (ng/1 × 10^6 cells) (RAW cells; [4]): 41.78 ng/1 × 10^6 cells; Concentration (pmol/1 × 10^6 cells) (RAW cells; [4]): 71.18 pmol/1 × 10^6 cells; (Compound 1-TP)/(Compound 1) (ng) (RAW cells; 0.5 μM Compound 1, 48 hours): 21.8; (Compound 1-TP)/(Compound 1) (ng) (RAW cells; 1 μM Compound 1, 48 hours): 39.4; (Compound 1-TP)/(Compound 1) (ng) (RAW cells; 5 μM Compound 1, 48 hours): 41.3; (Compound 1-TP)/(Compound 1) (ng) (RAW cells; 10 μM Compound 1, 48 hours): 41.1; (Compound 1-TP)/(Compound 1) (pmol) (RAW cells; 0.5 μM Compound 1, 48 hours): 12.0; (Compound 1-TP)/(Compound 1) (pmol) (RAW cells; 1 μM Compound 1, 48 hours): 21.7; (Compound 1-TP)/(Compound 1) (pmol) (RAW cells; 5 μM Compound 1, 48 hours): 22.7; (Compound 1-TP)/(Compound 1) (pmol) (RAW cells; 10 μM Compound 1, 48 hours): 22.6
Cc1nc(N)c2c(C(=N)NO)cn([C@@H]3O[C@H](CO)[C@@H](O)[C@H]3O)c2n1 [Compound 85] | < 4.00 | 
COC(=O)C(OC[C@H]1O[C@@H](n2cc(C#N)c3c(N)nc(C)nc32)[C@H](O)[C@@H]1O)P(=O)(OC)OC (stereo partly shown) [Compound 86] | < 4.00 | 
Cc1nc(N)c2c(C(N)=O)cn([C@@H]3O[C@H](CO)[C@@H](O)[C@@]3(C)O)c2n1 [Compound 87] | < 4.00 | 
N#Cc1nc(N)c2c(C(N)=O)cn([C@@H]3O[C@H](CO)[C@@H](O)[C@H]3O)c2n1 [Compound 89] | < 4.00 | 
CC#Cc1nc(N)c2c(C(N)=O)cn([C@@H]3O[C@H](CO)[C@@H](O)[C@H]3O)c2n1 [Compound 90] | < 4.00 | 
Cc1nc(N)c2c(C(=N)N)cn([C@@H]3O[C@H](CO)[C@@H](O)[C@H]3O)c2n1 [Compound 91] | < 4.00 | 
Cc1nc(N)c2c(C(N)=O)cn([C@H]3C[C@H](O)[C@@H](CO)O3)c2n1 [Compound 92] | < 4.00 | 
Cc1nc(N)c2c(C(N)=O)cn([C@@H]3O[C@H](COC(=O)[C@@H](N)C(C)C)[C@@H](OC(=O)C(N)C(C)C)[C@@]3(C)O)c2n1 (stereo partly shown) [Compound 93] | < 4.00 | 
Cc1nc(NO)c2c(C(N)=O)cn([C@@H]3O[C@H](CO)[C@@H](O)[C@H]3O)c2n1 [Compound 94] | < 4.00 | 
Cc1nc(NN)c2c(C(N)=O)cn([C@@H]3O[C@H](CO)[C@@H](O)[C@H]3O)c2n1 [Compound 95] | < 4.00 | 
Cc1nc(N)c2c(C(N)=O)cn([C@@H]3O[C@H](C)[C@@H](O)[C@H]3O)c2n1 [Compound 97] | < 4.00 | 
Cc1nc(Cl)c2ccn(C[C@H](O)CO)c2n1 [Compound 98] | < 4.00 | 
NC(=O)c1cn([C@@H]2O[C@H](CO)[C@@H](O)[C@H]2O)c2nc(CO)nc(N)c12 [Compound 99] | < 4.00 | 
COC(=N)c1cn([C@@H]2O[C@@](CO)(N=[N+]=[N-])[C@@H](O)[C@H]2O)c2nc(C)nc(N)c12 [Compound 100] | < 4.00 | 
Cc1nc(N)c2c(C(N)=O)cn([C@@H]3O[C@H](CO)[C@@H](F)[C@H]3O)c2n1 [Compound 101] | < 4.00 | 
Cc1nc(N)c2c(C(N)=O)cn([C@@H]3O[C@H](C(C)O)[C@@H](O)[C@H]3O)c2n1 (stereo partly shown) [Compound 102] | < 4.00 | 
COC(=N)c1cn([C@@H]2O[C@H](COS(=O)(=O)CCCCl)[C@H]3OC(C)(C)O[C@H]32)c2nc(C)nc(N)c12 [Compound 103] | < 4.00 | 
COC(=N)c1cn([C@@H]2O[C@H](CN=[N+]=[N-])[C@@H](O)[C@H]2O)c2nc(C)nc(N)c12 [Compound 104] | < 4.00 | 
Cc1nc(N)c2c(C(N)=O)cn([C@@H]3O[C@@](CO)(N=[N+]=[N-])[C@@H](O)[C@H]3O)c2n1 [Compound 105] | < 4.00 | 
Cc1nc(N)c2c(C#N)cn([C@@H]3O[C@@](CO)(N=[N+]=[N-])[C@@H](O)[C@H]3O)c2n1 [Compound 106] | < 4.00 | 
Cc1nc(N)c2c(C(N)=O)cn([C@@H]3O[C@H](COP(=O)(N[C@@H](C)C(=O)OCc4ccccc4)Oc4ccccc4)[C@@H](O)[C@H]3O)c2n1 (stereo partly shown) [Compound 107] |  | pEC50 (mouse norovirus; Table 7): 4.74
Cc1nc(N)c2c(C(N)=O)cn([C@@H]3O[C@H](CN)[C@@H](O)[C@H]3O)c2n1 [Compound 108] | < 4.00 | 
Cc1nc(N)c2c(C(N)=O)cn([C@@H]3O[C@@H](CO)[C@@H](O)[C@H]3O)c2n1 [Compound 109] | < 4.00 | 
Cc1nc(N)c2c(C(N)=O)cn([C@H]3CCCO3)c2n1 [Compound 110] | < 4.00 | 
COC(=O)[C@H](C)NP(=O)(OC[C@H]1O[C@@H](n2cc(C(N)=O)c3c(N)nc(C)nc32)[C@H](O)[C@@H]1O)Oc1ccccc1 (stereo partly shown) [Compound 111] |  | pEC50 (mouse norovirus; Table 7): 4.68
Cc1nc(N)c2c(C(N)=O)cn([C@@H]3O[C@H](CO)[C@@H](N=[N+]=[N-])[C@H]3O)c2n1 [Compound 112] | < 4.00 | 
Cc1nc(N)c2c(C(N)=O)cn([C@@H]3O[C@H](CO)[C@@H](N)[C@H]3O)c2n1 [Compound 113] | < 4.00 | 

Structure (SMILES) | pEC50 (mouse norovirus; [5]) | also measured
Cc1nc(N)c2c(C#N)cn([C@H]3C=C[C@@H](O)O3)c2n1 [Compound 114] | < 4.00 | 
CCOP(=O)(CO[C@@H]1C=C[C@H](n2cc(C#N)c3c(Cl)nc(C)nc32)O1)OCC [Compound 116] | < 4.00 | 
Cc1nc(Cl)c2c(C#N)cn([C@@H]3O[C@H](O)[C@@H](O)[C@H]3O)c2n1 [Compound 117] | < 4.00 | 
Cc1nc(N)c2c(C(N)=O)cn([C@@H]3O[C@H](O)[C@@H](O)[C@H]3O)c2n1 [Compound 118] | < 4.00 | 
CCOP(=O)(CC[C@H]1O[C@@H](n2cc(C(N)=O)c3c(N)nc(C)nc32)[C@H](O)[C@@H]1O)OCC [Compound 119] | < 4.00 | 
Cc1nc(Cl)c2ccn([C@H]3CC=CO3)c2n1 [Compound 120] | < 4.00 | 
CCOP(=O)(CCO[C@H]1O[C@@H](n2cc(C#N)c3c(Cl)nc(C)nc32)[C@H](O)[C@@H]1O)OCC [Compound 123] | < 4.00 | 
Cc1nc(N)c2c(C(N)=O)cn([C@H]3C=C[C@@H](O)O3)c2n1 [Compound 124] | < 4.00 | 
Cc1nc(N)c2c(C(N)=O)cn([C@@H]3O[C@H](OCCP(=O)(O)O)[C@@H](O)[C@H]3O)c2n1 [Compound 125] | < 4.00 | 
Cc1nc(N)c2c(C(N)=O)cn([C@@H]3O[C@H](COP(=O)(N[C@@H](C)C(=O)OCc4ccccc4)N[C@H](C)C(=O)OCc4ccccc4)[C@@H](O)[C@H]3O)c2n1 [Compound 126] |  | pEC50 (mouse norovirus; Table 7): 4.47 and 4.41
Cc1nc(/N=C/N(C)C)c2c(C(N)=O)cn([C@@H]3O[C@H](CO)[C@@H](O)[C@H]3O)c2n1 [Compound 127] | 5.26 | 
CC(=O)Nc1nc(C)nc2c1c(C(N)=O)cn2[C@@H]1O[C@H](COC(C)=O)[C@@H](OC(C)=O)[C@H]1OC(C)=O [Compound 128] | < 4.00 | 
CC(=O)OC[C@H]1O[C@@H](n2cc(C(N)=O)c3c(N)nc(C)nc32)[C@H](OC(C)=O)[C@@H]1OC(C)=O [Compound 129] | 4.05 | 
CCCCCCCCCCCCCCCCOCCCC(=O)Nc1nc(C)nc2c1c(C(N)=O)cn2[C@@H]1O[C@H](CO)[C@@H](O)[C@H]1O [Compound 130] | 4.37 | 
CCCC(CCC)C(=O)Nc1nc(C)nc2c1c(C(N)=O)cn2[C@@H]1O[C@H](CO)[C@@H](O)[C@H]1O [Compound 131] | < 4.00 | 
Cc1nc(N)c2c(C(N)=O)cn([C@@H]3O[C@H](COP(=O)(N[C@@H](C)C(=O)OC(C)C)Oc4ccccc4)[C@@H](O)[C@H]3O)c2n1 (stereo partly shown) [Compound 132] | < 4.00 | 
Cc1nc(N)c2c(C(N)=O)cn([C@@H]3O[C@H](COP(=O)(N[C@@H](C)C(=O)OC(C)C)Oc4ccccc4)[C@@H](OC(=O)C(C)C)[C@H]3OC(=O)C(C)C)c2n1 (stereo partly shown) [Compound 133] |  | pEC50 (mouse norovirus; Table 7): 4.59
Cc1nc(N)c2c(C(N)=O)cn([C@@H]3O[C@H](COP(=O)(N[C@@H](C)C(=O)OC(C)C)Oc4ccccc4)[C@H]4OC(=O)O[C@H]43)c2n1 (stereo partly shown) [Compound 134] | 4.16 | 
Cc1nc(N)c2c(C(N)=O)cn([C@@H]3O[C@H](COP(=O)(NCc4ccccc4)NCc4ccccc4)[C@@H](O)[C@H]3O)c2n1 [Compound 136] | 4.19 | 
Cc1nc(N)c2c(C(N)=O)cn([C@@H]3O[C@H](COP(=O)(N[C@@H](C)C(=O)OC(C)C)OCc4ccccc4C)[C@@H](O)[C@H]3O)c2n1 (stereo partly shown) [Compound 137] |  | pEC50 (mouse norovirus; Table 7): 4.70
CCCCCCCCCCCCCCCCOCCCOC(=O)[C@H](C)NP(=O)(OC[C@H]1O[C@@H](n2cc(C(N)=O)c3c(N)nc(C)nc32)[C@H](O)[C@@H]1O)Oc1ccccc1 (stereo partly shown) [Compound 139] |  | pEC50 (mouse norovirus; Table 7): 5.64
CCCCCCCCCCCCCCCCOCCCOP(=O)(N[C@@H](C)C(=O)OC(C)C)OC[C@H]1O[C@@H](n2cc(C(N)=O)c3c(N)nc(C)nc32)[C@H](O)[C@@H]1O (stereo partly shown) [Compound 140] | < 4.00 | 
Cc1nc(N)c2c(C(N)=O)cn([C@@H]3O[C@H](COP(=O)(O)N[C@@H](C)C(=O)OC(C)C)[C@@H](O)[C@H]3O)c2n1 [Compound 141] |  | pEC50 (mouse norovirus; Table 7): 5.49
CCCCCCCCCCCCCCCOCCCOC(=O)C(C)NP(=O)(OCc1ccccc1C)OC[C@H]1O[C@@H](n2cc(C(N)=O)c3c(N)nc(C)nc32)[C@H](O)[C@@H]1O (stereo partly shown) [Compound 142] | < 4.00 | 
CCCCCCCCCCCCCCCCOCCCOC(=O)[C@H](C)NP(=O)(O)OC[C@H]1O[C@@H](n2cc(C(N)=O)c3c(N)nc(C)nc32)[C@H](O)[C@@H]1O [Compound 143] |  | pEC50 (mouse norovirus; Table 7): 4.58
C=Cc1c(C(N)=O)c2c(N)nc(C)nc2n1[C@@H]1O[C@H](CO)[C@@H](O)[C@H]1O [Compound 144] | < 4.00 | 
CCCCCCCCC(=O)Oc1ccc(COP(=O)(OCc2ccc(OC(=O)CCCCCCCC)cc2)OP(=O)(O)OC[C@H]2O[C@@H](n3cc(C(N)=O)c4c(N)nc(C)nc43)[C@H](O)[C@@H]2O)cc1 [Compound 145] |  | pEC50 (mouse norovirus; Table 7): 5.13
